These results are taken from US20260207602A1, “EGFR INHIBITORS” (Blueprint Medicines Corporation, priority 2022, published 2026).

Assay [1] deals with intracellular phosphorylation of EGFR (Tyr1068) in PC-9 cells (Homo sapiens, UniProt P00533, DEL746-750). Put plainly: PC-9 pEGFR AlphaLISA assay. The conditions noted are these: 4 hours incubation, read-out: Phos EGFR PC9 IC50. Format: cell-based. Summed up:
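PC-9 cells (EGFR del746-750) in phenol-free DMEM/10% FBS, adhered overnight, then exposed to 10-point 4-fold compound dilutions for 4 h at 37 °C. Lysates assayed for pEGFR Tyr1068 by AlphaLISA SureFire Ultra; IC50 from percent pEGFR inhibition vs log concentration.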

For assay [2], the target named is T1, EGFR L858R (Homo sapiens, UniProt P00533, L858R).
T1 construct: purchased SignalChem E10-122BG
T1 sequence (P00533 25-1210 L858R): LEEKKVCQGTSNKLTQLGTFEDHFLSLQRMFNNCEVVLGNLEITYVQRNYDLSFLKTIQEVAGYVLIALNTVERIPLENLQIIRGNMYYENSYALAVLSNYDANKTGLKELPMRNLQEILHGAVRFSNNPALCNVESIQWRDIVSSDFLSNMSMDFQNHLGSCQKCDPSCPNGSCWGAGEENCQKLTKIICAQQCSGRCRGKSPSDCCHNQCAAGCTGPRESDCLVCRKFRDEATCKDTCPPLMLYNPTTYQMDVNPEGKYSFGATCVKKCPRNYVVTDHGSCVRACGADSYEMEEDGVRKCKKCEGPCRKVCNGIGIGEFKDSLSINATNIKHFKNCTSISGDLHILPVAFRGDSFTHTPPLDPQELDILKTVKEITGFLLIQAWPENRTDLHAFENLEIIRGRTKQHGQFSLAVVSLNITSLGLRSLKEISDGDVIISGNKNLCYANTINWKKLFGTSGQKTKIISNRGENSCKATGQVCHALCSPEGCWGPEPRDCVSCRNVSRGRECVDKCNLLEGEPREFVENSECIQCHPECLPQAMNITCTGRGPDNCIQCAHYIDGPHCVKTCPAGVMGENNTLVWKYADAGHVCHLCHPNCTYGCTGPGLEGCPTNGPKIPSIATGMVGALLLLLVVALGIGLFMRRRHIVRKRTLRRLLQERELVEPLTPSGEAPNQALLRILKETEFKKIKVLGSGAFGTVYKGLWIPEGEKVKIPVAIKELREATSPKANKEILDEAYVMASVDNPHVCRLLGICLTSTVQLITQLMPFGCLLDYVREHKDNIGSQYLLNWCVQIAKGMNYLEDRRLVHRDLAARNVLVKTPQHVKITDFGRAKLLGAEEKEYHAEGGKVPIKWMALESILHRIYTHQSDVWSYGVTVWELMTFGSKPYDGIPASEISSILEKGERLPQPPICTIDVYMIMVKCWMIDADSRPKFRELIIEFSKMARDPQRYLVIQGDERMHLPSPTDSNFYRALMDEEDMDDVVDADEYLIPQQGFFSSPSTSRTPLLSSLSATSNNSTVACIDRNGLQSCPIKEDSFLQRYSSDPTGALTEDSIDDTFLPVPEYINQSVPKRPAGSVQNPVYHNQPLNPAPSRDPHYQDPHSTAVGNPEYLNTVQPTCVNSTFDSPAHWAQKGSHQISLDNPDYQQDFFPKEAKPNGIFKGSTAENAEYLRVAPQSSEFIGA
Put plainly: Biochemical EGFR inhibition assay (Caliper mobility shift), EGFR L858R. The conditions noted are these: biochemical Caliper mobility shift assay, EGFR L858R enzyme; read-out: Enz EGFR L858R IC50. Summed up:
(§1)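 Compounds were titrated against enzyme phosphorylating a 5-FAM peptide (2.5 µM) in 100 mM HEPES, pH 7.5, 10 mM MgCl2, 1 mM DTT. ATP was held at 1.0 mM or at Km, and reactions ran at 25 °C until 10–20% conversion before EDTA quench. Apparent IC50 values come from percent activity plotted against log concentration.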

Assay [3] deals with T2, EGFR (d746-750) (Homo sapiens, UniProt P00533, DEL746-750).
T2 construct: purchased SignalChem E10-122JG
T2 sequence (P00533 with tags, fused parts or gaps DEL746-750 limits assumed): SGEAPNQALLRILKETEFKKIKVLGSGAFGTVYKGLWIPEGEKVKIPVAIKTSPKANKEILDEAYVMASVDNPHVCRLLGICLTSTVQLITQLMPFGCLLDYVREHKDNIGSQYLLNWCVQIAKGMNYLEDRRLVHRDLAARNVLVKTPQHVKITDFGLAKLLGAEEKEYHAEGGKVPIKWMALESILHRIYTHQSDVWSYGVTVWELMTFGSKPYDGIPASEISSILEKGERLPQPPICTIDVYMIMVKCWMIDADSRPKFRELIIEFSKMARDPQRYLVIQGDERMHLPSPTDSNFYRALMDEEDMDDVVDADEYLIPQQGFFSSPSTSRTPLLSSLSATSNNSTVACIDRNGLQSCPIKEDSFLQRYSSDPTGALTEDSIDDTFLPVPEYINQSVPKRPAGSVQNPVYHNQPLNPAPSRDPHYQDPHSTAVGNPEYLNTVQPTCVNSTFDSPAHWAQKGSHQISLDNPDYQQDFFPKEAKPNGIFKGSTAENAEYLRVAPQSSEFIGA
Put plainly: Biochemical EGFR inhibition assay (Caliper mobility shift), EGFR (d746-750). The conditions noted are these: biochemical Caliper mobility shift assay, EGFR Exon 19-del enzyme; read-out: Enz EGFR Exon 19-del IC50. In short, it runs like this:
as §1

Structures are written as SMILES.

intracellular phosphorylation of EGFR (Tyr1068) in PC-9 cells, sequence (P00533 with tags, fused parts or gaps DEL746-750): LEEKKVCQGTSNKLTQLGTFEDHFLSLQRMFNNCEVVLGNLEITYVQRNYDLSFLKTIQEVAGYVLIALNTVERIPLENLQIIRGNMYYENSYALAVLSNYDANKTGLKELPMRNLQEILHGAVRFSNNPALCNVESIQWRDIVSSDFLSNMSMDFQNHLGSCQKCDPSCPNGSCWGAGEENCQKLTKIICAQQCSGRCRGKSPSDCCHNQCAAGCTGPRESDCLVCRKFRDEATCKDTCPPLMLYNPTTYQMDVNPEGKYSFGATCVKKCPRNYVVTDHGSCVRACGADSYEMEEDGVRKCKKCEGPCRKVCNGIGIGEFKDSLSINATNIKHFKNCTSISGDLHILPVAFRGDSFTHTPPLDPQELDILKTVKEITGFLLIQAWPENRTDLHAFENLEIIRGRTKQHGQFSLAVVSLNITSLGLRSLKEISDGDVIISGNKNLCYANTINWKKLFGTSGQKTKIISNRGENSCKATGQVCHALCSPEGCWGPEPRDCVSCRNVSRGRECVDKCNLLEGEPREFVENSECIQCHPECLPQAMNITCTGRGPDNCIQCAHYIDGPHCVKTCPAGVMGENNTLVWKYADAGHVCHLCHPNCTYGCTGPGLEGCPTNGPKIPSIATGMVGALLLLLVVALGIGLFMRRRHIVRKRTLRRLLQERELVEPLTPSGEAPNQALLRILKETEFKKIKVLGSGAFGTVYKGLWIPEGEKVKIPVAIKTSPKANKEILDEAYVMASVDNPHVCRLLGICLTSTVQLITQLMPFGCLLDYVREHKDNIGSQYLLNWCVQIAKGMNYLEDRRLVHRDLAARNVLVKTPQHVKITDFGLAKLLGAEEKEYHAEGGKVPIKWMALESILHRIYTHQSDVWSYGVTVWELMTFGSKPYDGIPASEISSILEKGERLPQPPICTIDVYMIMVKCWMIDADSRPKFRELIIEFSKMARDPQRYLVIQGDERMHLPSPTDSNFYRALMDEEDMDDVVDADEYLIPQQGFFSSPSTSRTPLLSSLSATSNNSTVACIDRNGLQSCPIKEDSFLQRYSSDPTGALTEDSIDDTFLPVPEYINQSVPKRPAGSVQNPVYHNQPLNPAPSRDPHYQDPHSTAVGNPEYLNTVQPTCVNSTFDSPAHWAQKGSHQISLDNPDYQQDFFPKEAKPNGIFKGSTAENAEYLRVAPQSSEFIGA

Broadly, the IC50 is the concentration that inhibits the measured activity by half. On to `COc1nn(C)cc1-c1cc(O[C@H](C)C2COC2)c2c(Nc3ccc4ncsc4c3F)ncnc2c1` (single isomer, unassigned) [Example 78], for which the IC50 in assay [1], in assay [2] and in assay [3] was at most 10 nM in each case.

For `COc1cn(C)nc1-c1cc(O[C@H](C)C2COC2)c2c(Nc3ccc4ncsc4c3F)ncnc2c1` (single isomer, unassigned) [Example 80], the IC50 in assay [1], in assay [2] and in assay [3] was at most 10 nM in each case.

With `COc1cn(C)nc1-c1cc(O[C@H](C)C2COC2)c2c(Nc3ccc4ncsc4c3F)ncnc2c1` (single isomer, unassigned) [Example 81], the IC50 was 10.1 to 50 nM in assay [1], at most 10 nM in assay [2] and at most 10 nM in assay [3].

Take `COc1cc(O[C@H](C)C2COC2)c2c(Nc3ccc4ncsc4c3F)ncnc2c1` (single isomer, unassigned) [Example 82]: the IC50 in assay [1] is 10.1 to 50 nM; in assay [2], at most 10 nM; in assay [3], at most 10 nM.

On to `COc1cc(O[C@H](C)C2COC2)c2c(Nc3ccc4ncsc4c3F)ncnc2c1` (single isomer, unassigned) [Example 83], for which the IC50 in assay [1], in assay [2] and in assay [3] was at most 10 nM each time.

As to `COCCOc1cc(O[C@H](C)C2COC2)c2c(Nc3ccc4ncsc4c3F)ncnc2c1` (single isomer, unassigned) [Example 84], the IC50 in assay [1], in assay [2] and in assay [3] was at most 10 nM each time.

Regarding `COCCOc1cc(O[C@H](C)C2COC2)c2c(Nc3ccc4ncsc4c3F)ncnc2c1` (single isomer, unassigned) [Example 85], the half-inhibitory concentration (IC50) in assay [1] was 10.1 to 50 nM; in assay [2], at most 10 nM; in assay [3], at most 10 nM.

Consider `C[C@@H](Oc1cc(-c2cnn(C)c2)cc2ncnc(Nc3ccc4ncsc4c3F)c12)C1(C)COC1` (single isomer, unassigned) [Example 86], for which the IC50 in assay [1], in assay [2] and in assay [3] was at most 10 nM each time.

Turning to `C[C@@H](Oc1cc(-c2cnn(C)c2)cc2ncnc(Nc3ccc4ncsc4c3F)c12)[C@H]1CCOC1` (single isomer, unassigned) [Example 88], the IC50 in assay [1], in assay [2] and in assay [3] was at most 10 nM each time.

As to `CC[C@@H](Oc1cc(-c2cnn(C)c2)cc2ncnc(Nc3ccc4ncsc4c3F)c12)C1COC1` (single isomer, unassigned) [Example 92], the concentration for half-maximal inhibition (IC50) in assay [1], in assay [2] and in assay [3] was at most 10 nM in each case.

For `C[C@@H](Oc1cc(N2CCN(C)CC2)cc2ncnc(Nc3ccc4ncsc4c3F)c12)C1COC1` (single isomer, unassigned) [Example 94], the IC50 was 10.1 to 50 nM in assay [1], at most 10 nM in assay [2] and at most 10 nM in assay [3].

As for `C[C@@H](Oc1cc(N2CCN(C)CC2)cc2ncnc(Nc3ccc4ncsc4c3F)c12)C1COC1` (single isomer, unassigned) [Example 95], the IC50 in assay [1] was 10.1 to 50 nM; in assay [2] it was 10.1 to 50 nM; in assay [3] it was at most 10 nM.

For the molecule `C[C@@H](Oc1cc(N2CCN(C)CC2)cc2ncnc(Nc3ccc4ncsc4c3)c12)C1COC1` (single isomer, unassigned) [Example 96], the figures for the half-maximal inhibitory concentration (IC50) in assay [1], in assay [2] and in assay [3] were 10.1 to 50 nM, at most 10 nM and at most 10 nM, respectively.

`C[C@@H](Oc1cc(N2CCN(C)CC2)cc2ncnc(Nc3ccc4ncsc4c3)c12)C1COC1` (single isomer, unassigned) [Example 97]: the IC50 in assay [1] was 10.1 to 50 nM; in assay [2], 10.1 to 50 nM; in assay [3] it was at most 10 nM.

Take `C[C@@H](Oc1cc(N2CCN(C)[C@@H](C)C2)cc2ncnc(Nc3ccc4ncsc4c3F)c12)C1COC1` (single isomer, unassigned) [Example 98]: the values for the IC50 in assay [1], in assay [2] and in assay [3] were 10.1 to 50 nM, at most 10 nM and at most 10 nM, respectively.
